Ki data for 29 molecules are collected here from PubChem BioAssay AID2033 (NMMLSC, 2009).

Sequence of Ras-related protein Rab-2A (Canis lupus familiaris) (P61105 whole entry, looked up): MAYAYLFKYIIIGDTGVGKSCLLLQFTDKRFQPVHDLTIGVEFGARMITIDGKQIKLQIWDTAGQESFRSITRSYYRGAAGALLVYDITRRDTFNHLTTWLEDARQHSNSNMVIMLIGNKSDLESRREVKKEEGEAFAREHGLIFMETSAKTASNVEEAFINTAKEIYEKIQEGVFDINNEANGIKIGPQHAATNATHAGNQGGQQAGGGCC

This test concerns the target Ras-related protein Rab-2A (Canis lupus familiaris) (UniProt P61105). The test can be described thus: wildtype Rab2 GTP-binding inhibitors, SAR follow-up, biochemical, multiplex dose response, Bodipy-FL-GTP, flow cytometry (AID 2033). The settings on record: GST-Rab2 beads, Ki calculated from EC50.
As to `Cc1ccc(C)c(N2CCN(C(=O)CCc3nc(-c4ccccc4)no3)CC2)c1`, the Ki was 50 nM.

Turning to `COc1ccc(-c2noc(CCC(=O)N3CCN(c4ccccc4Br)CC3)n2)cc1`, the Ki was 210 nM.

As to `COc1ccc(-c2noc(CCC(=O)N3CCN(c4cccc(Cl)c4)CC3)n2)cc1`, the Ki is 540 nM. In the case of `Cc1ccc(C)c(N2CCN(C(=O)CCc3nc(-c4ccc(Br)cc4)no3)CC2)c1` it was 190 nM; in that of `COc1ccc(-c2ccc(CCC(=O)N3CCN(c4cc(C)ccc4C)CC3)s2)cc1`, 160 nM. `COc1ccc(-c2cc(CCC(=O)N3CCN(c4cc(C)ccc4C)CC3)on2)cc1`: the Ki was 160 nM. Then `COc1ccc(-c2noc(CCC(=O)N3CCN(c4ccccc4C(F)(F)F)CC3)n2)cc1`, with 130 nM; and `COc1ccc(-c2ccc(CCC(=O)N3CCN(c4cc(C)ccc4C)CC3)[nH]2)cc1`, with 330 nM. Then `Cc1ccc(C)c(N2CCN(C(=O)CCc3nc(-c4ccccc4F)no3)CC2)c1`, with 60 nM; and `Cc1ccc(C)c(N2CCN(C(=O)CCc3nc(-c4cccc(Cl)c4)no3)CC2)c1`, with 180 nM; and `COc1ccc(-c2noc(CCC(=O)N3CCN(c4cccc(OC)c4)CC3)n2)cc1`, with 410 nM. As for `Cc1ccc(C)c(N2CCN(C(=O)CCc3nc(-c4ccccc4Br)no3)CC2)c1`, the inhibition constant Ki was 200 nM. Regarding `COc1ccc(-c2noc(CCC(=O)N3CCN(c4cc(C)ccc4C)CC3)n2)cc1`, the inhibitory constant (Ki) is 160 nM. Consider `COc1ccc(-c2noc(CCC(=O)N3CCN(c4ccccc4OC)CC3)n2)cc1`, for which the Ki was 80 nM.

Regarding `Cc1ccc(C)c(N2CCN(C(=O)CCc3nc(-c4ccc(F)cc4)no3)CC2)c1`, the inhibitory constant (Ki) was 20 nM.

Take `Cc1cccc(-c2noc(CCC(=O)N3CCN(c4cc(C)ccc4C)CC3)n2)c1`: the inhibition constant (Ki) is 80 nM. In the case of `Cc1ccc(-c2noc(CCC(=O)N3CCN(c4cc(C)ccc4C)CC3)n2)cc1` it was 260 nM. In the case of `COc1ccc(-c2ccc(CCC(=O)N3CCN(c4cc(C)ccc4C)CC3)o2)cc1` it was 960 nM; in that of `COc1ccc(-c2noc(CCC(=O)N3CCN(c4cccc(C)c4C)CC3)n2)cc1`, 150 nM. Then `Cc1ccc(C)c(N2CCN(C(=O)CCc3nc(-c4ccc(Cl)cc4)no3)CC2)c1`, with 110 nM; and `COc1ccc(-c2noc(CCC(=O)N3CCN(c4ccccc4C)CC3)n2)cc1`, with 160 nM; and `COc1ccc(-c2noc(CCC(=O)N3CCN(c4ccccc4Cl)CC3)n2)cc1`, with 150 nM. For the molecule `COc1ccc(-c2noc(CCC(=O)N3CCN(c4ccccc4F)CC3)n2)cc1`, the inhibitory constant (Ki) is 50 nM. In the case of `Cc1ccc(C)c(N2CCN(C(=O)CCc3nc(-c4ccccc4C)no3)CC2)c1` it was 110 nM. For `COc1ccc(-c2noc(CCCC(=O)N3CCN(c4cc(C)ccc4C)CC3)n2)cc1`, the inhibition constant (Ki) is 1030 nM. Then `COc1ccc(-c2noc(CCC(=O)N3CCC(c4cc(C)ccc4C)CC3)n2)cc1`, with 160 nM. For the molecule `COc1ccc(-c2noc(CCC(=O)N3CCN(c4ccc(C)cc4)CC3)n2)cc1`, the Ki is 50 nM.

With `Cc1ccc(C)c(N2CCN(C(=O)CCc3nc(-c4cccc(Br)c4)no3)CC2)c1`, the Ki is 230 nM. In the case of `COc1cccc(-c2noc(CCC(=O)N3CCN(c4cc(C)ccc4C)CC3)n2)c1`, the Ki is 250 nM.

What is called Ki is a dissociation constant, usually derived from enzyme kinetics or from competition with a known ligand.
